Here are results for six compounds from patent US4025631A, “Dihydroquinoline derivatives of antioxidant activity” (priority 1971, dated 1977).

Counter-ions that a name gives are not always drawn.

For data set [1] the following is noted: cited from earlier work.
In data set [2] the test system is encephalomalacia of poultries. Particulars: versus EMQ; cited from earlier work.
Data set [3] in a line: antioxidant effect on fish-meal samples, Warburg apparatus. The conditions noted are these: 40 g. of fish meal + 0.04 g. of antioxidant; for Oxygen Uptake (decrease of O2 pressure, mmHg): 29° C., control 19.5; for Peroxide Number (calculated for 1 g. of fish meal): treated with oxygen, control 7.83. Here is the method:
The antioxidant effect of the new substances shown in foodstuffs and nutriments was investigated on fish-meal samples. […] In these experiments the oxygen uptake of fish-meal samples containing the various antioxidants was determined in a Warburg apparatus at 29° C., and the results were compared with those measured on samples containing no antioxidant. The peroxide number of samples treated with oxygen was also determined.

Data set [4] has as its system rats. Particulars: 14 days, 0.50 g./kg.; cited from earlier work.
A short description of data set [5]: LD50 (Korber method, modified by Cornfield). The conditions noted are these: in vivo. From the text:
The LD50 values of BHT and EMQ are, on the other hand, the following -- measured according to the Korber method, modified by Cornfield: […]

A further data set relates to animals. Particulars: longer period, dose of 0.56 g./kg.; cited from earlier work.
A short description of another data set: solubility. In kind it is physicochemical.
The test system of data set [6] is rats. The experiment in a line: continuous administration of XAX for three weeks / 90 days. In kind it is in vivo. An excerpt:
(§1) Since the novel compounds are completely nontoxic, they can be used with great advantage in animal husbandry and in the food industry, as well as in therapy. On the basis of the investigations carried out on the acute and chronic toxicity of these new active agents, it can be stated that they are completely free of the disadvantages of the hitherto-known antioxidants mentioned above, first of all as regards their use in therapy.

A further data set relates to serum cholesterol level. As to the kind of experiment: serum cholesterol of cholesterol-treated rabbits. In kind it is in vivo. The conditions noted are these: 1 g. of cholesterol per day, 0.06 g./kg. XAX daily for 70 or 105 days. As for the experimental part:
Due to this fact they can also be used for the prophylaxis and treatment of arteriosclerois. This effect of the new substances was investigated on rabbits treated with 1 g. of cholesterol per day. The animals were treated for 70 or 105 days with daily doses of 0.06 g./kg. of XAX. […] Using the hitherto-known antioxidants, this very favorable and important effect could not be reached at all.

The next data set concerns malignant tumors. The experiment in a line: appearance of malignant tumors in animals irradiated with minimum doses for a long period. It is filed as in vivo. Particulars: minimum irradiation doses for a long period, versus irradiated controls without XAX. From the text:
Another important and unexpected property of the new substances is that they exert radiosensibilizing effect. […] On the basis of this property, the new compounds can also be used for the potentiating of the effect of irradiation therapy.

For data set [7], the system named is rats. The conditions noted are these: rat, in vivo.
Excerpt: as §1

In the case of `Cc1cc(C(C)(C)C)c(O)c(C(C)(C)C)c1` [BHT], the “anophthalmia (teratogeneous effect)” value in [1] (aftereffect) is given as “the appearance of anophthalmia was observed”. In addition, in data set [1] (in vivo), the “cholesterol-synthesis in the liver and endogenous epoxidation” value is “the cholesterol-synthesis in the liver as well as the endogenous epoxidation increases”; the “endogenous production of fatty acids and β-oxidation” value is “stimulates the endogenous production of fatty acids and β-oxidation”; the gestation period result is listed as “increases the gestation period”. Besides, the “activity in encephalomalacia of poultries” value in data set [2] was “far lower activity than EMQ”. For the same compound, in [3], the “Oxygen Uptake (decrease of O2 pressure, mmHg)” value came out at 16.5 mmHg and the “Peroxide Number (calculated for 1 g. of fish meal)” value was 3.42.

`CCOc1ccc2c(c1)C(C)=CC(C)(C)N2` [EMQ, 6-ethoxy-2,2,4-trimethyl-1,2-dihydroquinoline]: in the data set on rats [4], the “appetite of the animals” value is “the appetite of the animals was lowered” and the “size of the liver” value was “an increase in size of the liver was observed”. In data set [5], this compound showed a 50% lethal dose (LD50) of 2230 ± 300 mg/kg. In addition, in the data set with animals, the appetite entry is on record as “may cause appetite lowering” and the gain in weight result is listed as “lowers the gain in weight”. Further, in [3], the “Oxygen Uptake (decrease of O2 pressure, mmHg)” value stood at 23.5 mmHg and the “Peroxide Number (calculated for 1 g. of fish meal)” value is reported as 2.87.

As for `CC1=CC(C)(C)Nc2ccc(Cc3ccc4c(c3)C(C)=CC(C)(C)N4)cc21` [Example 8, bis-(2,2,4-trimethyl-1,2,-dihydroquinolyl-6)-methane], the “solubility in water and alcohol” value in the data set “solubility” was “well soluble in water and alcohol”.

Regarding `CC1=CC(C)(C)Nc2ccc(Cc3ccc4c(c3)C(C)=CC(C)(C)N4)cc21` [Example 9, bis-(2,2,4-trimethyl-1,2-dihydroquinolyl-6)-methane], the “solubility in water and alcohol” value in “solubility” was “soluble in water and alcohol”.

For the compound `CC1=CC(C)(C)Nc2ccc(Cc3ccc4c(c3)C(C)=CC(C)(C)N4)cc21` [XAX, bis-(2,2,4-trimethyl-1,2-dihydroquinolyl-6)-methane], in the data set on rats [6] (daily doses of 0.25 mg./kg., three weeks), the “damaging of tissues or cells” value is recorded as “no damaging of tissues or cells could be observed”. For the same compound, the “weight gain and blood picture” value with rats [6] (rats, 90 days, same dose) is “Neither the weight gain nor the blood picture of the animals was harmfully affected”. In the data set with rats [6] (rats, 90 days, same dose, versus untreated animals), the “weight gain of some organs” value is on record as “no excessive weight gain of some organs of the animals could be observed”. The harmful effects result in the data set with rats [6] (rats, same dose (0.25 mg./kg. daily), 90 days) is reported as “No harmful effects could be observed”. The “cholesterol level of the blood” value in the data set with serum cholesterol level is recorded as “the cholesterol level of the blood decreased to a great extent”. Also, the “appearance of malignant tumors” value in the data set on malignant tumors was “could be suppressed”. In data set [3], the “Oxygen Uptake (decrease of O2 pressure, mmHg)” value was 11.5 mmHg and the “Peroxide Number (calculated for 1 g. of fish meal)” value is listed as 1.54. Also, in the data set on rats [7], the toxic symptoms result is recorded as “no toxic symptoms”.

Regarding `CC1=CC(C)(C)Nc2ccc(Cc3ccc4c(c3)C(C)=CC(C)(C)N4)cc21` [sulfuric acid salt of XAX], in “solubility”, the “solubility in water and alcohol” value was “soluble in water and alcohol”.

For orientation: LD50 means the dose expected to kill half of the subjects tested. Low values mean a more toxic substance, high ones a less toxic substance.
